For 74 molecules, AC50 results are on record in PubChem BioAssay AID977630 (Broad Institute, 2014).

For assay [1], the system named is E. coli humanized H38 RFP strain growth, mixed culture, 24 h. Nature of the assay: E. coli growth inhibition, wild-type GFP versus H38 humanized RFP strain – H38 mutant RFP vs wild-type GFP, cherry-pick, dose response (AID 977630).
The test system of assay [2] is E. coli wild-type GFP growth, mixed culture, 24 h. Described as above.
Where [3] appears, read: E. coli mixed culture total OD600 growth, 24 h.

What is called AC50 is the concentration giving half of the maximal activity seen.

SMILES strings stand for the structures. Inconclusive results are not listed. Activity calls are given as the source filed them.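 The calls were made as follows: active = Normal-ribosome green reporter loss at least double humanized-ribosome red reporter loss, with overall culture growth inhibition under a set limit; inconclusive = no clear call, values can overlap the other calls; inactive = the rest.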

In assay [1], `Cc1ccc([N+](=O)[O-])c(OCCn2cnc3ccccc32)c1` had an AC50 greater than 100 µM.

Regarding `COc1cc(NC(=O)c2ccc(Cl)cc2)c(OC)cc1NC(=O)CN1CCCCC1`, the AC50 in assay [1] is greater than 100 µM; in assay [2], > 100 µM (inactive); in assay [2] (setting [3]), greater than 100 µM.

For the molecule `CSc1nnnn1-c1ccc(Cl)cc1`, in assay [1], the AC50 was greater than 100 µM.

On to `Cc1ccccc1NS(=O)(=O)c1cc(C(=O)NCCC2=CCCCC2)ccc1C`, for which the AC50 in assay [1] and in assay [2] (setting [3]) was greater than 100 µM throughout.

`CN(c1ccc(C(=O)NCc2cccs2)cc1)S(=O)(=O)c1ccccc1` displayed an AC50 in assay [1] greater than 100 µM.

`CC(C)(C)c1ccc(S(=O)(=O)NCc2ccc(C(=O)NCc3ccccn3)cc2)cc1`: the figures for the AC50 in assay [1], in assay [2] and in assay [2] (setting [3]) were 49.9 µM, > 100 µM (inactive) and greater than 100 µM, respectively.

As to `Cc1ccccc1-c1nc(CS(=O)(=O)CC(=O)N2CCCCC2)c(C)o1`, the AC50 is greater than 100 µM in assay [1] and 45.5 µM in assay [2] (setting [3]).

For `Nc1ncncc1-c1ccc2ccccc2c1`, the AC50 in assay [1] is greater than 100 µM; in assay [2] it was > 100 µM (inactive).

For the molecule `O=C1c2ccccc2NC(c2ccc(-c3cccc([N+](=O)[O-])c3)o2)N1O` (stereo unspecified), the values for the AC50 in assay [1] and in assay [2] were 7.43 µM and > 100 µM (inactive), respectively.

With `CCn1cc(Br)c(C(=O)Nc2ccc(C(=O)OC(C)C)cc2)n1`, the AC50 in assay [1] is 52 µM; in assay [2] it was > 100 µM (inactive); in assay [2] (setting [3]), 47.3 µM.

As to `O=C(NCc1ccccc1)c1ccc(-c2cn[nH]c2)c2ccoc12`, the AC50 in assay [1] is greater than 100 µM; in assay [2], > 100 µM (inactive).

`COc1ccc(-c2cc(C(=O)O)nc3ccc4ccccc4c23)cc1OC` yielded an AC50 in assay [1] greater than 100 µM.

`COc1ccc(OC2C(=O)N(Cc3ccc4c(c3)OCO4)C2c2cccs2)cc1` (stereo unspecified): the AC50 in assay [1] is 11.5 µM; in assay [2], > 100 µM (inactive).

For `COc1ccc(-c2nn(-c3ccccc3C)cc2CNCc2cccnc2)cc1F`, the AC50 in assay [1] and in assay [2] (setting [3]) was greater than 100 µM each time.

In the case of `CCOC(=O)c1csc(NC(=O)CC2CCCC2)n1`, the figures for the AC50 in assay [1] and in assay [2] were 51.7 µM and > 100 µM (inactive), respectively.

In the case of `O=C1NC(CCc2ccccc2)C(=O)N1Cc1cccc2ccccc12` (stereo unspecified), the AC50 in assay [1] was 50.1 µM; in assay [2], > 100 µM (inactive); in assay [2] (setting [3]), 51.8 µM.

As for `Nc1nc(=S)ss1`, the figures for the AC50 in assay [1], in assay [2] and in assay [2] (setting [3]) were less than 0.6 µM, > 100 µM (inactive) and greater than 100 µM, respectively.

Take `O=C(Nc1ccccc1N1CCOCC1)C1CCCCN1S(=O)(=O)c1ccccc1` (stereo unspecified): the half-maximal activity concentration (AC50) in assay [1] is 49.8 µM; in assay [2] (setting [3]), greater than 100 µM.

For `COC(=O)c1nc(-c2ccc(C)cc2)[nH]c1C(C)(C)C`, in assay [1], the AC50 is greater than 100 µM.

As for `CC(C)(C)S(=O)(=O)Cc1nc(-c2ccc(Cl)c(Cl)c2)cs1`, the AC50 in assay [1] and in assay [2] (setting [3]) was greater than 100 µM in each case.

For `COc1cccc(NC(=O)C2CCC(CNS(=O)(=O)c3cccc4cccnc34)CC2)c1` (stereo unspecified), the AC50 in assay [1] was greater than 100 µM.

For `Nc1nc2ccccc2n1CCOc1ccc(F)cc1`, the AC50 was less than 0.6 µM in assay [1] and > 100 µM (inactive) in assay [2].

For `O=C(CCCSc1nc2ccccc2s1)NCc1ccc2c(c1)OCO2`, the results for the AC50 in assay [1], in assay [2] and in assay [2] (setting [3]) were greater than 100 µM, > 100 µM (inactive) and 43.8 µM, respectively.

As for `CS(=O)(=O)N1CC2CCCN2c2ccc(C(F)(F)F)cc21` (stereo unspecified), the AC50 was greater than 100 µM in assay [1], > 100 µM (inactive) in assay [2] and greater than 100 µM in assay [2] (setting [3]).

`COc1cc(OC)cc(C(=O)N[C@H](C(=O)OCC(=O)Nc2ccc(F)c(F)c2F)C(C)C)c1`: the AC50 in assay [1] was greater than 100 µM; in assay [2] it was > 100 µM (inactive).

Take `CC(C)C[C@H]1COc2cc(Br)ccc2S(=O)(=O)N1`: the half-maximal activity concentration (AC50) in assay [1] was 47 µM; in assay [2], > 100 µM (inactive).

As to `COc1cccc(CNC(=O)CCSCc2ccccc2F)c1`, the results for the AC50 in assay [2] and in assay [2] (setting [3]) were > 100 µM (inactive) and greater than 100 µM, respectively.

Consider `CC(C)(CC(=O)O)CC(=O)NCc1c(Cl)cccc1Sc1ccc(Cl)cc1`, for which the AC50 in assay [2] is > 100 µM (inactive).

For the molecule `C=CCn1c(C)cc(C(=O)CSc2nnc(C3CC3)n2C2CC2)c1C`, the AC50 in assay [2] was > 100 µM (inactive); in assay [2] (setting [3]), greater than 100 µM.

Regarding `CN1CCN(c2nc(Nc3ccc(O)cc3)nc3ccccc23)CC1`, the AC50 in assay [2] is > 100 µM (inactive).

Turning to `CS(=O)(=O)c1ccc(Cl)c(NC(=O)COC(=O)c2c(Cl)cccc2Cl)c1`, the results for the AC50 in assay [1], in assay [2] and in assay [2] (setting [3]) were greater than 100 µM, > 100 µM (inactive) and greater than 100 µM, respectively.

As to `COc1cccc(CC(=O)OC(C)C(=O)NCc2ccc3c(c2)OCO3)c1` (stereo unspecified), the AC50 in assay [2] was > 100 µM (inactive).

Regarding `COC(=O)c1ccc(OS(=O)(=O)c2ccc(NC(C)=O)cc2)cc1`, the AC50 was > 100 µM (inactive) in assay [2] and greater than 100 µM in assay [2] (setting [3]).

For `O=C(NCCCCc1ccccc1)c1cccc(NC(=O)C2CCCCC2)c1`, the AC50 in assay [2] is > 100 µM (inactive); in assay [2] (setting [3]), greater than 100 µM.

As to `Cc1ccsc1C(=O)OCC(=O)N1CCc2ccccc2C1`, in assay [2], the AC50 was > 100 µM (inactive).

Consider `Cc1cc(C(=O)COC(=O)CNC(=O)c2ccccc2)c(C)n1CC1CCCO1` (stereo unspecified), for which the AC50 in assay [2] was > 100 µM (inactive).

As for `CC(=O)N(CCC1(c2ccc(C)cc2)CCOC(C(C)C)C1)Cc1ccco1` (stereo unspecified), the AC50 in assay [2] was > 100 µM (inactive).

On to `Cc1cc(SCC(=O)OCC(=O)NCC2CCCO2)c(C)cc1Br` (stereo unspecified), for which the AC50 was greater than 100 µM in assay [1] and > 100 µM (inactive) in assay [2].

Take `COc1ccc(NC(=O)c2cccs2)cc1C(=O)N1CCN(c2ccccc2)CC1`: in assay [2], the AC50 was > 100 µM (inactive).

Turning to `S=c1nc(-c2cc(Cl)cc(Cl)c2)[nH][nH]1`, in assay [2], the AC50 is > 100 µM (inactive).

For the molecule `COc1ccc(OC)c(-c2csc(NC(=O)C3COc4ccccc4O3)n2)c1` (stereo unspecified), the AC50 in assay [2] was > 100 µM (inactive).

In assay [2] (setting [3]), `CCOC(=O)C(CC)Sc1cc(C)nc2ccc(OC)cc12` (stereo unspecified) registered an AC50 greater than 100 µM.

As for `COC(=O)CC#C[C@H](C)[C@@H](NS(=O)(=O)c1ccc([N+](=O)[O-])cc1)C(C)(C)C`, the AC50 in assay [2] is > 100 µM (inactive).

For `CCc1cccc(NC(=O)c2ccc3c(=O)n4c(nc3c2)CCCCC4)c1`, in assay [2], the AC50 was > 100 µM (inactive).

`Cc1onc(-c2ccccc2Cl)c1C(=O)OCC(=O)c1ccccc1` returned an AC50 in assay [2] (setting [3]) greater than 100 µM.

Take `Cc1nonc1C1CCCN1C(=O)c1cc(COc2ccc(F)cc2F)on1` (stereo unspecified): the AC50 in assay [2] is > 100 µM (inactive).

For `CN(C(=O)COc1ccccc1C(=O)NCCOc1ccccc1)c1ccccc1`, the AC50 in assay [1] is 44.2 µM; in assay [2] it was > 100 µM (inactive).

In the case of `O=C(CCCOc1ccc(Cl)cc1Cl)Nc1ccccc1C(=O)O`, the AC50 is > 100 µM (inactive) in assay [2] and greater than 100 µM in assay [2] (setting [3]).

`COC(=O)c1cc2c(c3c4cc(F)ccc4n(S(=O)(=O)c4ccccc4)c13)C(=O)N(Cc1ccco1)C2`: in assay [2], the AC50 was > 100 µM (inactive).

Regarding `COc1ccc(N(C)S(=O)(=O)c2cccc(C(=O)NC3CCCCC3C)c2)cc1` (stereo unspecified), the AC50 in assay [2] was > 100 µM (inactive).

As for `CCCc1c(C(=O)Nc2ccc(OC)cc2)cnn1-c1ccccc1`, the AC50 is > 100 µM (inactive) in assay [2] and greater than 100 µM in assay [2] (setting [3]).

Regarding `O=C(NCc1ccc2c(c1)OCO2)C1CCCN1S(=O)(=O)c1ccc(Cl)cc1` (stereo unspecified), the AC50 in assay [2] is > 100 µM (inactive).

Take `O=C1OC[C@@H]2CCCN2C(=O)[C@@H](CC(=O)N(CCO)Cc2ccccc2)C/C=C\C[C@H]1Cc1ccc(F)cc1`: the AC50 in assay [2] is > 100 µM (inactive).

Consider `CCOc1ccccc1NC(=O)c1cc(SC)ccc1Cl`, for which the AC50 in assay [2] is > 100 µM (inactive).

`Fc1ccccc1C1CCN(Cc2nc(COc3ccccc3)no2)C1` (stereo unspecified): in assay [1], the AC50 was greater than 100 µM.

For `COc1ccccc1CNC(=O)CN1C(=O)NC(c2ccccc2)(c2ccccc2)C1=O`, the figures for the AC50 in assay [2] and in assay [2] (setting [3]) were > 100 µM (inactive) and greater than 100 µM, respectively.

Turning to `Cc1ccc(-n2nc(C)c3c(C)c(CCC(=O)O)c(C)nc32)cc1C`, the AC50 in assay [2] was > 100 µM (inactive); in assay [2] (setting [3]), greater than 100 µM.

For the molecule `CC(=O)N1CCOc2ccc(S(=O)(=O)N(C)c3ccc(C)cc3)cc21`, the AC50 in assay [2] is > 100 µM (inactive).

As to `Cc1onc(-c2ccccc2Cl)c1C(=O)Nc1ccc(Cl)cn1`, the AC50 in assay [2] was > 100 µM (inactive).

For `COC(=O)c1ccsc1NC(=O)c1cccc(OC)c1`, the AC50 in assay [2] (setting [3]) is greater than 100 µM.

Regarding `COC(=O)c1sc(C(C)(C)C)cc1CS(=O)(=O)c1ccc(Cl)cc1`, the AC50 in assay [2] is > 100 µM (inactive).

Regarding `Brc1ccc(Nc2ncnc3[nH]ncc23)cc1`, the AC50 in assay [2] was > 100 µM (inactive).

As to `Cc1cccc(NC(=O)c2sc3nc(-c4ccccc4)cn3c2C)n1`, the AC50 in assay [2] (setting [3]) is greater than 100 µM.

In the case of `COc1cc(NC(=O)COC(=O)CC(C)(C)C)c(C)cc1[N+](=O)[O-]`, the figures for the AC50 in assay [2] and in assay [2] (setting [3]) were > 100 µM (inactive) and greater than 100 µM, respectively.

Take `CC(=O)Nc1ccc(-c2ccnc3c2CC(C)(C(=O)Nc2ccc4c(c2)OCO4)O3)cc1` (stereo unspecified): the AC50 in assay [2] is > 100 µM (inactive).

`S=c1nc(-c2cccc(Br)c2)[nH][nH]1` had an AC50 in assay [2] (setting [3]) greater than 100 µM.

Regarding `CC(=O)Nc1nc(C)c(-c2csc(Nc3ccccn3)n2)s1`, the AC50 in assay [2] was > 100 µM (inactive).

With `CC(=O)NCCOc1nc(N2CCCCC2)nc(N2CCCCC2)n1`, the figures for the AC50 in assay [2] and in assay [2] (setting [3]) were > 100 µM (inactive) and greater than 100 µM, respectively.

Consider `O=C(Nc1ccccc1N1CCN(C(=O)c2ccccc2)CC1)c1ccc([N+](=O)[O-])o1`, for which the AC50 in assay [2] was > 100 µM (inactive).

`Cc1ccc(NC(=O)c2ccc([N+](=O)[O-])s2)cc1S(=O)(=O)N1CCOCC1`: the AC50 in assay [2] is > 100 µM (inactive); in assay [2] (setting [3]), greater than 100 µM.

`Cc1ccc(-c2nc(CN3CCCCC3c3cccc(F)c3)c(C)o2)o1` (stereo unspecified): the AC50 in assay [2] was > 100 µM (inactive).

The molecule `CCN(CC)S(=O)(=O)c1ccc(N2CCCC2)c(NC(=O)c2ccccc2OC)c1` returned an AC50 in assay [2] (setting [3]) greater than 100 µM.

`CCN(CC)CCNC(=O)c1cc2cc3ccc(OC)cc3nc2o1`: in assay [2], the AC50 was > 100 µM (inactive).

In the case of `Cc1ccc(NS(=O)(=O)c2ccc3c(c2)CCC(=O)N3)cc1C`, the AC50 in assay [2] was > 100 µM (inactive).
